According to US12544395B2, “Combination compositions comprising a beta-lactamase inhibitor and uses thereof” (priority 2018, dated 2026):

Tests used:
Assay type in all cases: cell-based
[1] = test system: K. pneumoniae 115468; assay: Broth microdilution MIC (strain enzymes: TEM-1); conditions: with inhibitor at 4 μg/mL
[2] = test system: K. pneumoniae SI-KP NO30; assay: Broth microdilution MIC (strain enzymes: TEM-26b, SHV-60, SHV-26)
[3] = test system: K. oxytoca 169219; assay: Broth microdilution MIC (strain enzymes: TEM-1, CTXM-15)
[4] = test system: E. coli BAS 1; assay: Broth microdilution MIC (strain enzymes: none detected)
[5] = test system: K. pneumoniae KI (KCl); assay: Broth microdilution MIC (strain enzymes: TEM-10)
[6] = test system: E. coli SI-PBLII; assay: Broth microdilution MIC (strain enzymes: CTX-M2, TEM-1)

CCC(=O)N[C@H]1Cc2cccc(C(=O)O)c2OB1O [Compound 2, (R)-2-hydroxy-3-propionamido-3,4-dihydro-2H-benzo[e][1,2]oxaborinine-8-carboxylic acid]
0.125 µg/mL: MIC of cefdinir (CDR) [1] | MIC of cefalexin (LEX) ([2]; with inhibitor at 1 μg/mL) | MIC of cefdinir (CDR) ([2]; with inhibitor at 1 μg/mL) | MIC of cefalexin (LEX) ([2]; with inhibitor at 4 μg/mL) | MIC of cefdinir (CDR) ([2]; with inhibitor at 4 μg/mL) | MIC of cefixime (CFM) ([3]; with inhibitor at 2 μg/mL) | MIC of cefixime (CFM) ([3]; with inhibitor at 4 μg/mL) | MIC of cefalexin (LEX) ([5]; with inhibitor at 1 μg/mL) | MIC of cefdinir (CDR) ([5]; with inhibitor at 1 μg/mL) | MIC of ceftibuten (CTB) ([5]; with inhibitor at 1 μg/mL) | MIC of cefalexin (LEX) ([5]; with inhibitor at 2 μg/mL) | MIC of cefdinir (CDR) ([5]; with inhibitor at 2 μg/mL) | MIC of cefalexin (LEX) ([5]; with inhibitor at 4 μg/mL) | MIC of cefdinir (CDR) ([5]; with inhibitor at 4 μg/mL) | MIC of ceftibuten (CTB) ([5]; with inhibitor at 4 μg/mL) | MIC of ceftibuten (CTB) ([6]; with inhibitor at 1 μg/mL) | MIC of ceftibuten (CTB) ([6]; with inhibitor at 2 μg/mL) | MIC of ceftibuten (CTB) ([6]; with inhibitor at 4 μg/mL)
1 µg/mL: MIC of cefalexin (LEX) ([3]; with inhibitor at 1 μg/mL) | MIC of cefdinir (CDR) ([3]; with inhibitor at 1 μg/mL) | MIC of cefalexin (LEX) ([4]; with inhibitor at 1 μg/mL) | MIC of cefdinir (CDR) ([4]; with inhibitor at 1 μg/mL) | MIC of ceftibuten (CTB) ([4]; with inhibitor at 1 μg/mL) | MIC of cefalexin (LEX) ([4]; with inhibitor at 2 μg/mL) | MIC of cefdinir (CDR) ([4]; with inhibitor at 2 μg/mL) | MIC of ceftibuten (CTB) ([4]; with inhibitor at 2 μg/mL) | MIC of cefixime (CFM) ([4]; with inhibitor at 4 μg/mL) | MIC of cefixime (CFM) ([5]; with inhibitor at 1 μg/mL) | MIC of cefixime (CFM) ([5]; with inhibitor at 2 μg/mL)
2 µg/mL: MIC of cefixime (CFM) ([4]; with inhibitor at 2 μg/mL) | MIC of cefalexin (LEX) ([4]; with inhibitor at 4 μg/mL) | MIC of cefdinir (CDR) ([4]; with inhibitor at 4 μg/mL)
0.5 µg/mL: MIC of cefixime (CFM) [1] | MIC of cefixime (CFM) ([2]; with inhibitor at 1 μg/mL) | MIC of cefalexin (LEX) ([3]; with inhibitor at 2 μg/mL) | MIC of cefdinir (CDR) ([3]; with inhibitor at 2 μg/mL) | MIC of cefalexin (LEX) ([3]; with inhibitor at 4 μg/mL) | MIC of cefdinir (CDR) ([3]; with inhibitor at 4 μg/mL) | MIC of ceftibuten (CTB) ([4]; with inhibitor at 4 μg/mL)
0.06 µg/mL: MIC of ceftibuten (CTB) [1] | MIC of ceftibuten (CTB) ([2]; with inhibitor at 1 μg/mL) | MIC of ceftibuten (CTB) ([2]; with inhibitor at 2 μg/mL) | MIC of ceftibuten (CTB) ([2]; with inhibitor at 4 μg/mL) | MIC of ceftibuten (CTB) ([5]; with inhibitor at 2 μg/mL)
0.0149 µg/mL: MIC of ceftibuten (CTB) ([3]; with inhibitor at 2 μg/mL) | MIC of ceftibuten (CTB) ([3]; with inhibitor at 4 μg/mL)
0.25 µg/mL: MIC of cefalexin (LEX) ([2]; with inhibitor at 2 μg/mL) | MIC of cefdinir (CDR) ([2]; with inhibitor at 2 μg/mL) | MIC of cefixime (CFM) ([2]; with inhibitor at 2 μg/mL) | MIC of cefixime (CFM) ([2]; with inhibitor at 4 μg/mL) | MIC of cefixime (CFM) ([3]; with inhibitor at 1 μg/mL) | MIC of cefixime (CFM) ([5]; with inhibitor at 4 μg/mL) | MIC of cefalexin (LEX) ([6]; with inhibitor at 1 μg/mL) | MIC of cefdinir (CDR) ([6]; with inhibitor at 1 μg/mL) | MIC of cefixime (CFM) ([6]; with inhibitor at 1 μg/mL) | MIC of cefalexin (LEX) ([6]; with inhibitor at 2 μg/mL) | MIC of cefdinir (CDR) ([6]; with inhibitor at 2 μg/mL) | MIC of cefixime (CFM) ([6]; with inhibitor at 2 μg/mL) | MIC of cefalexin (LEX) ([6]; with inhibitor at 4 μg/mL) | MIC of cefdinir (CDR) ([6]; with inhibitor at 4 μg/mL) | MIC of cefixime (CFM) ([6]; with inhibitor at 4 μg/mL)
0.03 µg/mL: MIC of ceftibuten (CTB) ([3]; with inhibitor at 1 μg/mL)
8 µg/mL: MIC of cefixime (CFM) ([4]; with inhibitor at 1 μg/mL)
